Reference: patent US20230332103A1, “Methods and Compositions for Generating Human Forebrain Neural Progenitor Cells and for Maturation Thereof to Parvalbumin+ Interneurons” (Trailhead Biosystems Inc., priority 2021, published 2023)
Several values for one entry are separate records, joined by “and”; a condition that tells them apart may be missing. Identical values can stand only once. Entries after “also recorded” stand apart in the source; their conditions may differ. Where no end group is shown, it is not given here.

Experiments:
Format in all cases: cell-based, human
[1] = test system: stage 4 neural stem cells; experiment: HD-DoE 8-factor experiment for stage 5 recipe (Forskolin, Arachidonic acid, VPA, BDNF, BT13, O-LPA, GW7646, Sodium pyruvate), optimized for PVALB
Protocol: To further guide the differentiation of forebrain-committed neural stem cells to PVALB interneuron cells, an additional HD-DoE experiment was performed for 3 days on cells that were treated with stage 1 to stage 4 media for total of 12 days prior to start of the experiment. This experiment included 8 effectors, Forskolin, Arachidonic acid, VPA, BDNF, BT13, O-LPA, GW7646, and Sodium pyruvate. In this model, we focused on maximum expression of PVALB gene expressed in PVALB (+) interneurons (Nahar et al. (2021) Front. Psych. 12:679960). When the model was optimized for maximum expression of PVALB, Forskolin, GW7646, Sodium Pyruvate had the highest factor contributions, 3.14, 27.2, and 17.1 respectively (FIG. 25).
So, it was excluded in the recipe.

[2] = test system: stage 4 neural stem cells; experiment: HD-DoE 8-factor experiment for stage 5 recipe (Prostratin, Rosiglitazone, GSI-XX, Heparin, GW0742, N2, THI0019, GDNF), optimized for PVALB; conditions: for impact on expression of PVALB: dynamic profile analysis, FIG. 24; for factor contribution on expression of PVALB: positive, model optimized for maximum expression of PVALB, FIG. 23
Protocol: To investigate effect of other factors on differentiation of forebrain-committed neural stem cells to PVALB interneuron cells, an additional HD-DoE experiment was performed for 3 days on cells that were treated with stage 1 to stage 4 media for total of 12 days prior to start of the experiment. This experiment included eight effectors, Prostratin, Rosiglitazone, GSI-XX, Heparin, GW0742, N2, THI0019, and GDNF. In this model, we focused on maximum expression of PVALB gene expressed in PVALB (+) interneurons (Nahar et al. (2021) Front. Psych. 12:679960). When model was optimized for maximum expression of PVALB, Prostratin, GW0742, N2, and GDNF had the highest factor contributions, 13.56, 19.499, 15.9 and 8.2 respectively (FIG. 23).
So, they were excluded in the recipe.

[3] = test system: stage 2 neural stem cells; experiment: factor criticality analysis (dynamic profile analysis) of stage 3 recipe; parameters: unit not given here; conditions: other five factors present; for expression level of DLX1 when the effector is removed: 220 with all six factors; for expression level of LHX6 when the effector is removed: 240 with all six factors; for expression level of ASCL1 when the effector is removed: 1650 with all six factors
Protocol: To assess the impact of the elimination of each validated factor, dynamic profile analysis was used and compared the expression level of genes of interest in absence of each finalized factor while others are present. […] In the stage 3 recipe, each of the six finalized factors were removed while the other five factors remained present and the expression levels of ASCL1, DLX1 and LHX6 were assessed compared to the presence of all six factors. […] As expected, in the absence of IGF-1, the value of DLX1 increases to 410, however, ASCL1 and LHX6 decreased to 1390 and 220, respectively.

[4] = test system: MGE progenitor cells; experiment: HD-DoE 12-factor experiment for stage 4 recipe, optimized for MEF2C; conditions: for impact on expression of MEF2C: dynamic profile analysis, FIG. 20
Excerpt: These effectors are small molecules or proteins. They are commonly used during stepwise differentiation of stem cells to specific fates. The choice of the effectors was based on current literature on neural induction in forebrain region of developing brain and differentiation of stem cells to neural progenitors.
To evaluate the effectors, experiments with at least 8 factors were designed that can assess the response of cells to 48 or more different combinations of effectors in a range of concentrations. To analyze the models, we focused on expression of genes involved in development and patterning of the forebrain interneurons maturation including LHX6 (Yuan et al. (2018) Elife, 7:e37382), DLX5 (Wang et al. (2010) J. Neuroscience 30:5334-5345), ASCL1 (Shi et al. (2016) J. Biol. Chem. 291:13560-13570). At later stages we focused on interneuron maturation genes including Parvalbumin and absence of somatostatin (Horn and Nicoll (2018) Proc. Natl. Acad. Sci. 115:589-594). The impacts of each effector on gene expression level are defined by a parameter called factor contribution that is calculated for each effector during the modeling.
To identify the recipe of stage 4 of differentiation, 48 different combinations of effectors generated using Design-of-Experiments compression through D-optimality were robotically prepared. The effector combinations were prepared in a basal media and were subsequently added to the cells, which were then allowed to differentiate. Three days later RNA extraction was performed, and gene expression was obtained using quantitative PCR analysis. The data was normalized and modeled using partial least squares regression analysis to the effector design, resulting in the generation of gene-specific models, which after model tuning for maximal predictive power, provided explanation of the effectors ability to control the expression of individual genes, combinatorically, and individually. Solutions within the tested space could then be explored to address desirability. […] Valproic Acid can inhibit histone deaceylases and increase γ-aminobutyric acid (GABA). […] GDNF is the […] Glial cell line-derived neurotrophic factor and can activate the GDNF pathway.
To find the set of factors that have the potential to optimize MEF2C in this experiment, a new assessment was done through dynamic profile analysis with focus on maximal expression of MEF2C (FIG. 20).

[5] = test system: forebrain-committed neural stem cells (stage 1 neural stem cells); experiment: HD-DoE 12-factor experiment for stage 2 recipe, optimized for NKX2-1; conditions: model maximized for NKX2-1 / dynamic profile, FIG. 7 and 8
Protocol: To further guide the differentiation of forebrain-committed neural stem cells to ventral forebrain neural stem cells at stage 2, a HD-DoE experiment was performed for 3 days after termination of stage 1 treatment. At this time, we focused on maximum expression of NKX2-1 that is expressed in ventral forebrain region and minimum expression of PAX6 that is expressed in dorsal forebrain region. This 12-factor experiment included LDN193189, BMP7, PD0325901, MK2206, A8301, XAV939, CHIR99021, Purmorphamine, SANT-1, AGN193109, TTNPB and GSI-XX.

[6] = test system: stage 2 neural stem cells (cells treated with stage 1 and stage 2 media); experiment: HD-DoE experiment for stage 3 recipe, optimized for ASCL1; conditions: for factor contribution on expression of ASCL1: positive, model optimized for maximum expression of ASCL1 at 1700, FIG. 9
Protocol: To further guide the cells to medial ganglionic eminence progenitor fate, an additional HD-DoE experiment was performed for 3 days on cells that were treated with stage 1 and stage 2 media for total of 6 days prior to start of the experiment. This experiment included 13 effectors, LDN193189, A8301, GNF5837, AZD3147, GSI-XX, Takinib, PD0325901, PD173074, BLU9931, IGF-1, MHY1485, Purmorphamine and Prostratin. In this model, we focused on maximum expression of genes expressed in neuronal progenitor cells in medial ganglionic eminence (MGE) region including ASCL1, LHX6 and DLX1 (Silberberg et al. (2016) Neuron 92:59-74). When the model was optimized for maximum expression of ASCL1 at 1700, A8301, GSI-XX, Purmorphamine and Takinib, which is an inhibitor of TAK1 pathway, had the highest factor contributions, 18.1, 14.1, 12.7 and 10.1 respectively. […]

[7] = test system: MGE progenitor cells; experiment: factor criticality analysis of stage 4 recipe; conditions: FIG. 27
Protocol: (§1) To assess the impact of elimination of each validated factor, we again used dynamic profile analysis and compared the expression level of genes of interest in the absence of each finalized factor while others are present.
In the stage 4 recipe, each of five finalized factors were removed while the other four factors were present and expression levels of forebrain genes were assessed compared to the presence of all 5 factors. MEF2C was reported to determine the PVALB-precursors cell fate (Mayer et al. (2018) Nature 555:457-462). We optimize MEF2C expression at this stage. […] (FIG. 27).

[8] = test system: cells after termination of stage 4 treatment; experiment: HD-DoE 8-factor experiment for stage 5 recipe (JQ1, Indolactam-V, Oleic acid, BDNF, IGF-1, 2-phospho-L-Ascorbic acid, Albumax, MK2206), optimized for PVALB
Excerpt: To further guide the differentiation of forebrain-committed neural stem cells to PVALB interneuron cells at stage 5, we performed a HD-DoE experiment for 3 days after termination of stage 4 treatment. At this time, we focused on maximum expression of PVALB that was expressed in Parvalbumin (+) interneurons and minimum expression of Somatostatin that is another type of interneurons. This 8-factor experiment included JQ1, Indolactam-V, Oleic acid, BDNF, IGF-1, 2-phospho-L-Ascorbic acid, Albumax, MK2206. […] Using dynamic profile analysis, we modified the model to achieve the maximum expression level of PVALB simultaneously and therefore 2-phospho-L-ascorbic acid, BDNF, IGF1 were included while MK2206, Albumax, and JQ1 are excluded (FIG. 22). Considering the model at different optimization settings for maximum differentiation of cells toward ventral forebrain, the recipe for stage 5 of differentiation included BDNF, IGF-1, 2-phospho-L-ascorbic acid from this HD-Doe experiment.

[9] = test system: stage 4 neural stem cells; experiment: factor criticality analysis of stage 5 recipe
Protocol: as §1
In the stage 5 recipe, each of seven finalized factors were removed while other factors were kept present and expression levels of PVALB and SST were assessed compared to the presence of all seven factors. […] 2-phospho-L-ascorbic acid, BDNF, IGF-1 were included in the stage 5 recipe (FIG. 28). […] Others were also found to increase the expression of somatostatin that was SST interneuron marker. So, they are excluded from the recipe and N2 was included in the stage 5 recipe (FIG. 29). […] Sodium pyruvate was included in the stage 5 recipe (FIG. 30).

[10] = dynamic profile analysis, FIG. 10
[11] = positive impact, model optimized for maximal expression of MEF2C at 453, FIG. 19

## CCN(CC)S(=O)(=O)c1ccc(OC)c(N2CCN(C(=O)c3ccc(F)cc3C(F)(F)F)CC2)c1 [BT13]
[1]; dynamic profile analysis, FIG. 26
  impact on expression of PVALB: significant negative impact

## C=C[C@@]1(C)CC(=O)[C@]2(O)[C@@]3(C)[C@@H](O)CCC(C)(C)[C@@H]3[C@H](O)[C@H](OC(C)=O)[C@@]2(C)O1 [Forskolin]
[1]; positive, model optimized for maximum expression of PVALB, FIG. 25
  factor contribution on expression of PVALB: 3.14

## C[C@H](NC(=O)Cc1cc(F)cc(F)c1)C(=O)N[C@@H]1C(=O)N(C)c2ccccc2-c2ccccc21 [GSI-XX]
[2]
  impact on expression of PVALB: negative impact
[3]
  expression level of DLX1 when the effector is removed: 50
  expression level of LHX6 when the effector is removed: 140
  expression level of ASCL1 when the effector is removed: 1200
[4]
  impact on expression of MEF2C: negative effect
[4]; significant negative effect, model optimized for maximal expression of MEF2C
  factor contribution on expression of MEF2C: 11.6
[5]
  impact on expression of NKX2-1: increase its expression level
[6]; [10]
  impact on expression of ASCL1: Positive impact
  impact on expression of LHX6: Positive impact
[6]
  factor contribution on expression of ASCL1: 14.1 and 14

## Cc1cc(SCc2sc(-c3ccc(C(F)(F)F)c(F)c3)nc2C)ccc1OCC(=O)O [GW0742]
[2]
  factor contribution on expression of PVALB: 19.499

## O=[N+]([O-])c1ccc(Nc2nc(N3CCOCC3)nc(N3CCOCC3)n2)cc1 [MHY1458]
[4]; [11]
  factor contribution on expression of MEF2C: 0.04
[6]
  factor contribution on expression of ASCL1: below 2
[7]
  effect on PVALB expression: increase PVALB expression

## CC(=O)O[C@@]12C[C@@H](C)[C@@]3(O)[C@@H](C=C(CO)C[C@]4(O)C(=O)C(C)=C[C@@H]34)[C@@H]1C2(C)C [Prostratin]
[2]
  factor contribution on expression of PVALB: 13.56

## CCCC[C@@H](COC(=O)N(Cc1cccs1)Cc1cccs1)NC(=O)N[C@@H](CC(=O)OC)c1ccc2c(c1)OCO2 [THI0019]
[2]
  impact on expression of PVALB: negative impact

## CCCC(CCC)C(=O)O [Valproic Acid, Valproic acid]
[4]
  impact on expression of MEF2C: positive impact
[4]; [11]
  factor contribution on expression of MEF2C: 12
[7]
  effect on PVALB expression: contribute to PVALB expression
  effect on somatostatin expression: minimal increase

## Heparin
[2]
  impact on expression of PVALB: negative impact

## IGF-1: insulin-like growth factor 1, growth factor, IGF1 pathway agonist
[8]; important input for maximum expression of PVALB, FIG. 21
  factor contribution on expression of PVALB: 12.8
[8]; model maximized for PVALB / dynamic profile, FIG. 21 and 22
  impact on expression of PVALB: increase its expression level; also recorded: positive impact
[3]
  expression level of DLX1 when the effector is removed: 410
  expression level of LHX6 when the effector is removed: 220
  expression level of ASCL1 when the effector is removed: 1390
[4]
  impact on expression of MEF2C: negative impact
[6]; [10]
  impact on expression of ASCL1: positive effect
  impact on expression of DLX1: negative impact
  impact on expression of LHX6: positive effect
[6]
  factor contribution on expression of ASCL1: 7
[9]; FIG. 28
  effect on expression of somatostatin: did not change
[9]; FIG. 28-30
  contribution to expression of PVALB (Parvalbumin): positive contribution

## Substance P: 11 amino acid neuropeptide, member of the tachykinin neuropeptide family (RPKPQQFFGLM; ends and bridges not checked; UniProt P20366 58-68, looked up)
[4]
  impact on expression of MEF2C: positive impact
[4]; [11]
  factor contribution on expression of MEF2C: 9
[7]
  effect on MEF2C expression: increase
  effect on somatostatin expression: decrease

B1: GDNF: Glial cell line-derived neurotrophic factor, activates the GDNF pathway (protein, UniProt P39905 78-211, looked up)
Glial cell line-derived …: SPDKQMAVLPRRERNRQAAAANPENSRGKGRRGQRGKNRGCVLTAIHLNVTDLGLGYETKEELIFRYCSGSCDAAETTYDKILKNLSRNRRLVSDKVGQACCRPIAFDDDLSFLDDNLVYHILRKHSAKRCGCI
[2]
  factor contribution on expression of PVALB: 8.2
[4]
  impact on expression of MEF2C: positive impact
[4]; [11]
  factor contribution on expression of MEF2C: 5
[7]
  effect on PVALB expression: contribute to PVALB expression
  effect on somatostatin expression: minimal increase
